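Results reflect a 48-hour exposure of cells in 96-well plates to compound at five concentrations. GI50 is the concentration that inhibits growth by half. TGI is the concentration that stops growth completely.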
What was measured:
Test in all cases: NCI tumour cell line growth inhibition, 48 h
A549 NSCLC = system: A549 NSCLC
IGROV1 ovarian = system: IGROV1 ovarian
OVCAR-4 ovarian = system: OVCAR-4 ovarian
K-562 leukemia = system: K-562 leukemia
CAKI-1 renal = system: CAKI-1 renal
SR leukemia = system: SR leukemia
CCRF-CEM leukemia = system: CCRF-CEM leukemia
MALME-3M melanoma = system: MALME-3M melanoma
HT29 colon = system: HT29 colon
EKVX NSCLC = system: EKVX NSCLC

SMILES | TGI (A549 NSCLC) [µM] | TGI (IGROV1 ovarian) [µM] | TGI (OVCAR-4 ovarian) [µM] | TGI (K-562 leukemia) [µM] | TGI (CAKI-1 renal) [µM] | TGI (SR leukemia) [µM] | TGI (CCRF-CEM leukemia) [µM] | TGI (MALME-3M melanoma) [µM] | TGI (HT29 colon) [µM] | TGI (EKVX NSCLC) [µM] | GI50 (A549 NSCLC) [µM] | GI50 (IGROV1 ovarian) [µM] | GI50 (OVCAR-4 ovarian) [µM] | GI50 (K-562 leukemia) [µM] | GI50 (CAKI-1 renal) [µM] | GI50 (CCRF-CEM leukemia) [µM] | GI50 (MALME-3M melanoma) [µM] | GI50 (HT29 colon) [µM] | GI50 (EKVX NSCLC) [µM] | GI50 (SR leukemia) [µM]
CCCC(=O)C(CC)/C(CCC(=O)N(Cc1ccccc1)Cc1ccccc1)=N/NC(=O)C[N+](C)(C)C (centres undefined) | > 100 | > 100 | > 100 | > 100 | > 100 | > 100 | > 100 | > 100 | > 100 | > 100 |  |  |  |  |  |  |  |  |  | 
COc1cc([N+](=O)[O-])c(S(=O)(=O)O)cc1-n1nc(-c2ccccc2)n[n+]1-c1cc(S(=O)(=O)[O-])c([N+](=O)[O-])cc1OC | > 100 | > 100 | > 100 | > 100 | > 100 | > 100 | > 100 | > 100 | > 100 | > 100 |  |  |  |  |  |  |  |  |  | 
COc1cc(C(C)c2cc3c(cc2OCCOCCOc2cc4c(cc2C(C)c2cc(OC)c(OC)c(OC)c2)OCO4)OCO3)cc(OC)c1OC (centres undefined) | > 100 | > 100 | > 100 | > 100 | > 100 | > 10 | > 100 | > 100 | > 100 | > 100 | > 100 | > 100 | > 100 | > 10 | > 100 | > 100 | > 100 | > 100 | > 100 | 
N#C/C(=C/c1cccs1)c1cccs1 | > 100 | > 100 | > 100 | > 100 | > 100 | > 100 | > 100 | > 100 | > 100 | > 100 | > 100 | > 100 | > 100 | > 100 | > 100 | > 100 | > 100 | > 100 | > 100 | > 100
CCCN(CCC)c1ccc(C=O)c(OC)c1 | > 100 | > 100 | 91.7 | > 100 | 80.4 | 34.5 | > 100 | 64.6 | 70.8 | 76.1 | 28.3 | 32.8 | 19.4 | 19.2 | 22.7 | 24.4 | 18.7 | 17 | 16.1 | 10.7
CN([N-]C(=O)CC(=O)[N-]N(C)C(=S)c1ccccc1)C(=S)c1ccccc1.[Cu+2] | 0.119 | 0.0406 | 0.0619 |  | 0.159 |  | 0.121 | 0.0585 | 0.0275 |  | 0.0223 | < 0.01 | < 0.01 | < 0.01 | 0.0459 | < 0.01 | 0.0194 |  |  | < 0.01
Cc1cc(C)c(S(=O)(=O)Oc2ccccc2[N+](=O)[O-])c(C)c1 | > 100 | > 100 | > 100 | > 100 | > 19.9 | > 100 | > 100 | > 100 | > 100 | > 100 | 4.19 | 2.68 | > 25.1 | 0.398 | 0.956 | 2.15 | 1.26 | 0.921 | 3.26 | 0.443
